Measurements taken from patent EP1247803A2, “Indolinone compounds suitable for modulation of protein kinases” (Sugen, Inc., priority 1996, dated 1998).

Assays:
FLK-1 receptor = biological target: T1, FLK-1 receptor (Mus musculus, UniProt P35918); test: FLK-1 ELISA (kinase activity of the FLK-1 receptor in FLK-1/NIH3T3 cells, VEGF stimulated); assay type: cell-based; design: concentration or dose not given beside the values
T1 construct: expressed in transfected cells; host or cells: NIH3T3 C7#3
T1 sequence (P35918 20-1345): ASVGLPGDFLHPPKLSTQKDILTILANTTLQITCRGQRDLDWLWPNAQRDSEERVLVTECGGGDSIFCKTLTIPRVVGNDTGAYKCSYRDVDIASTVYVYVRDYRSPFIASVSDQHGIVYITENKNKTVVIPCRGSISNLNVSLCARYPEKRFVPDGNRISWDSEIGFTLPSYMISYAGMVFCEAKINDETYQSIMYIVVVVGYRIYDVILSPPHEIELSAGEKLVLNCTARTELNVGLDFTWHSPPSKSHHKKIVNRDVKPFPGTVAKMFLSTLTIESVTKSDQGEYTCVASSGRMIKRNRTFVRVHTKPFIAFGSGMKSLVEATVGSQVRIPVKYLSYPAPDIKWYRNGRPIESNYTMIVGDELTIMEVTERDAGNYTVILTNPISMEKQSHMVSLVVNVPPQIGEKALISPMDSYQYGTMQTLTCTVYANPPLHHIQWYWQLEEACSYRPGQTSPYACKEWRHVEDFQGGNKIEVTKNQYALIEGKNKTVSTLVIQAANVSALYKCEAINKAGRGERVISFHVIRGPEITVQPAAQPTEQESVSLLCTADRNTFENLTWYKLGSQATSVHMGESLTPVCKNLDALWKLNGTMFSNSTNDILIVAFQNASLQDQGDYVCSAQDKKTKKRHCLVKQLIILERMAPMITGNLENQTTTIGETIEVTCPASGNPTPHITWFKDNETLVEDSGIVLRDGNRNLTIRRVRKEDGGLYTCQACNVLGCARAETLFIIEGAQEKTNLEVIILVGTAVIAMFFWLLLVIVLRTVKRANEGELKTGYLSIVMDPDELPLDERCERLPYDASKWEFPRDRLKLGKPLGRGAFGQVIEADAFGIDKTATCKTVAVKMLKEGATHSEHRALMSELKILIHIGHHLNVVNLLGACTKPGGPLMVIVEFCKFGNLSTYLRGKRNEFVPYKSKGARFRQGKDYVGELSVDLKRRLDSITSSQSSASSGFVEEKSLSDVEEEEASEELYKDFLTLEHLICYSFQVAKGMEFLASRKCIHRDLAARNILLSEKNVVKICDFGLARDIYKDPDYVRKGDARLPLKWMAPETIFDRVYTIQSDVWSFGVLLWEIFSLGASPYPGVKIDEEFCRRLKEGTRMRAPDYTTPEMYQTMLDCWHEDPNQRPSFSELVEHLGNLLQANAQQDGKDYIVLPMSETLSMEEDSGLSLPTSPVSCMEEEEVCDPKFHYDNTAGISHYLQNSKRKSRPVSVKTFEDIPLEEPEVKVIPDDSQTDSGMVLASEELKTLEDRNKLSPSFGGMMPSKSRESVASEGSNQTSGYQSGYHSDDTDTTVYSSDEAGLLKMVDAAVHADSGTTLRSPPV
Method in brief: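 An ELISA using affinity-purified rabbit anti-FLK-1 antiserum on anti-rabbit IgG-coated plates measured VEGF-stimulated FLK-1 kinase activity. NIH3T3 C7#3 cells carrying FLK-1 were serum-starved (0.1% FBS) overnight, then exposed to compound (final 1:200 dilution, 0.5% DMSO) for two hours at 37 °C.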

MET = MET biochemical kinase assay; design: species or system human; concentration or dose not given beside the values
Method in brief: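 Capture ELISA: anti-rabbit Fc coat, rabbit anti-MET cytoplasmic domain pAb, lysate MET captured, washed. Compound + kinase buffer (ATP, divalent metals). Readout anti-pTyr-HRP/TMB, colorimetric.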

SMILES | Fik Kinase %Inhibition (FLK-1 receptor) [%] | Met Kinase % Inhibition (MET) [%]
Cc1ccc(C=C2C(=O)Nc3c(Br)cc(Br)cc32)s1 [10717/A07] | -6.4 | 29.2
Cc1c(O)ccc(C=C2C(=O)Nc3c(Br)cc(Br)cc32)c1O [10718/A09] | -18.4 | 67.7
O=C1Nc2c(Br)cc(Br)cc2C1=Cc1ccco1 [10718/A10] | 23.4 | 77.9
O=C1Nc2c(Br)cc(Br)cc2C1=Cc1ccc([N+](=O)[O-])o1 [10718/A11] | 2.7 | 58.9
CCOC(=O)c1c(C)[nH]c(C=C2C(=O)Nc3ccc(I)cc32)c1C [10718/B02] | 7.0 | 52.9
COc1cc(Br)c(O)c(C=C2C(=O)Nc3ccc(I)cc32)c1 [10718/B03] | 1.7 | 77.9
O=C1Nc2ccc(I)cc2C1=Cc1ccc2ccccc2c1O [10718/B04] | 11.8 | 63.9
CCOC(=O)c1cc(C=C2C(=O)Nc3ccc(I)cc32)oc1C [10718/B06] | 16.5 | 78.4
CNS(=O)(=O)c1ccc2c(c1)C(=Cc1cccc(C(F)(F)F)c1F)C(=O)N2 [10728/D07] | 8.1 | 21.8
CNS(=O)(=O)c1ccc2c(c1)C(=Cc1cc(C(F)(F)F)ccc1F)C(=O)N2 [10728/D08] | 13.5 | 34.7
CNS(=O)(=O)c1ccc2c(c1)C(=Cc1c(F)cccc1C(F)(F)F)C(=O)N2 [10728/D09] | 10.5 | 27.6
CNS(=O)(=O)c1ccc2c(c1)C(=Cc1ccccc1OCC(=O)O)C(=O)N2 [10728/D10] | 17.9 | 30.5
CNS(=O)(=O)c1ccc2c(c1)C(=Cc1cc(OC)c3c(c1)OCO3)C(=O)N2 [10728/D11] | 15.9 | 52.5
COc1ccc(OC)c(C=C2C(=O)Nc3ccc(S(=O)(=O)Nc4ccc(C(F)(F)F)cc4)cc32)c1 [10728/E02] | 5.4 | 5.4
COc1cccc(OC)c1C=C1C(=O)Nc2ccc(S(=O)(=O)Nc3ccc(C(F)(F)F)cc3)cc21 [10728/E03] | 13.2 | 11.9
COc1cc(C=C2C(=O)Nc3ccc(S(=O)(=O)Nc4ccc(C(F)(F)F)cc4)cc32)cc(OC)c1 [10728/E04] | 5.5 | 25.6
COc1cc(N(C)C)ccc1C=C1C(=O)Nc2ccc(S(=O)(=O)Nc3ccc(C(F)(F)F)cc3)cc21 [10728/E05] | 17.4 | 53.4
O=C1Nc2ccc(S(=O)(=O)Nc3ccc(C(F)(F)F)cc3)cc2C1=Cc1ccc2c(c1)Cc1ccccc1-2 [10728/E06] | 6.6 | 26.4
O=C1Nc2ccc(S(=O)(=O)Nc3ccc(C(F)(F)F)cc3)cc2C1=Cc1cccc(C(F)(F)F)c1F [10728/E07] | 9.6 | 79.8
O=C1Nc2ccc(S(=O)(=O)Nc3ccc(C(F)(F)F)cc3)cc2C1=Cc1cc(C(F)(F)F)ccc1F [10728/E08] | 15.2 | 46.3
O=C1Nc2ccc(S(=O)(=O)Nc3ccc(C(F)(F)F)cc3)cc2C1=Cc1c(F)cccc1C(F)(F)F [10728/E09] | 9.0 | 40.0
O=C(O)COc1ccccc1C=C1C(=O)Nc2ccc(S(=O)(=O)Nc3ccc(C(F)(F)F)cc3)cc21 [10728/E10] | 24.7 | 57.2
COc1cc(C=C2C(=O)Nc3ccc(S(=O)(=O)Nc4ccc(C(F)(F)F)cc4)cc32)cc2c1OCO2 [10728/E11] | 16.3 | 53.1

SMILES | Fik Kinase %Inhibition (FLK-1 receptor) [%] | Met Kinase % Inhibition (MET) [%]
COc1ccc(OC)c(C=C2C(=O)Nc3ccc(S(=O)(=O)NN4CCOCC4)cc32)c1 [10728/F02] | 2.9 | 25.6
COc1ccc(OC)c(C=C2C(=O)Nc3ccc(CCCl)cc32)c1 [10728/G02] | 2.3 | 7.1
COc1cccc(OC)c1C=C1C(=O)Nc2ccc(CCCl)cc21 [10728/G03] | 14.3 | 8.8
COc1cc(C=C2C(=O)Nc3ccc(CCCl)cc32)cc(OC)c1 [10728/G04] | 21.8 | 20.9
COc1cc(N(C)C)ccc1C=C1C(=O)Nc2ccc(CCCl)cc21 [10728/G05] | 9.4 | 63.1
O=C1Nc2ccc(CCCl)cc2C1=Cc1ccc2c(c1)Cc1ccccc1-2 [10728/G06] | 13.5 | 25.3
O=C1Nc2ccc(CCCl)cc2C1=Cc1cccc(C(F)(F)F)c1F [10728/G07] | 22.6 | 42.4
O=C1Nc2ccc(CCCl)cc2C1=Cc1cc(C(F)(F)F)ccc1F [10728/G08] | 21.4 | 42.3
O=C1Nc2ccc(CCCl)cc2C1=Cc1c(F)cccc1C(F)(F)F [10728/G09] | 6.8 | 22.2
O=C(O)COc1ccccc1C=C1C(=O)Nc2ccc(CCCl)cc21 [10728/G10] | 10.4 | 27.9
COc1cc(C=C2C(=O)Nc3ccc(CCCl)cc32)cc2c1OCO2 [10728/G11] | 3.2 | 71.4
COc1ccc2ccccc2c1C=C1C(=O)Nc2c(Br)cc(Br)cc21 [10729/A02] | 15.5 | 28.1
COc1ccc(C=C2C(=O)Nc3c(Br)cc(Br)cc32)c2ccccc12 [10729/A03] | 4.7 | 27.5
CSc1ccc(C=C2C(=O)Nc3c(Br)cc(Br)cc32)cc1 [10729/A04] | -4.0 | 45.4
Cc1ccsc1C=C1C(=O)Nc2c(Br)cc(Br)cc21 [10729/A05] | -17.7 | 38.8
O=C1Nc2c(Br)cc(Br)cc2C1=Cc1cccc(Oc2ccccc2)c1 [10729/A06] | -10.9 | 29.8
O=C1Nc2c(Br)cc(Br)cc2C1=Cc1ccccn1 [10729/A07] | -10.0 | 51.1
O=C1Nc2c(Br)cc(Br)cc2C1=Cc1cccnc1 [10729/A08] | -13.3 | 48.1
O=C1Nc2c(Br)cc(Br)cc2C1=Cc1ccncc1 [10729/A09] | 0.4 | 80.3
O=C1Nc2c(Br)cc(Br)cc2C1=Cc1ccc(N2CCCC2)cc1 [10729/A10] | 0.7 | 34.8
O=C1Nc2c(Br)cc(Br)cc2C1=CC1C=CCCC1 (stereo not drawn) [10729/A11] | 4.9 | 49.9
COc1ccc2ccccc2c1C=C1C(=O)Nc2ccc(I)cc21 [10729/B02] | 13.8 | 77.2
